These results are taken from patent US20220380378A1 (ESSA Pharma, Inc., priority 2021, published 2022).

One series concerns the target T1, androgen receptor (AR) (Homo sapiens, UniProt P10275, T878A).
T1 sequence (P10275 1-920 T878A): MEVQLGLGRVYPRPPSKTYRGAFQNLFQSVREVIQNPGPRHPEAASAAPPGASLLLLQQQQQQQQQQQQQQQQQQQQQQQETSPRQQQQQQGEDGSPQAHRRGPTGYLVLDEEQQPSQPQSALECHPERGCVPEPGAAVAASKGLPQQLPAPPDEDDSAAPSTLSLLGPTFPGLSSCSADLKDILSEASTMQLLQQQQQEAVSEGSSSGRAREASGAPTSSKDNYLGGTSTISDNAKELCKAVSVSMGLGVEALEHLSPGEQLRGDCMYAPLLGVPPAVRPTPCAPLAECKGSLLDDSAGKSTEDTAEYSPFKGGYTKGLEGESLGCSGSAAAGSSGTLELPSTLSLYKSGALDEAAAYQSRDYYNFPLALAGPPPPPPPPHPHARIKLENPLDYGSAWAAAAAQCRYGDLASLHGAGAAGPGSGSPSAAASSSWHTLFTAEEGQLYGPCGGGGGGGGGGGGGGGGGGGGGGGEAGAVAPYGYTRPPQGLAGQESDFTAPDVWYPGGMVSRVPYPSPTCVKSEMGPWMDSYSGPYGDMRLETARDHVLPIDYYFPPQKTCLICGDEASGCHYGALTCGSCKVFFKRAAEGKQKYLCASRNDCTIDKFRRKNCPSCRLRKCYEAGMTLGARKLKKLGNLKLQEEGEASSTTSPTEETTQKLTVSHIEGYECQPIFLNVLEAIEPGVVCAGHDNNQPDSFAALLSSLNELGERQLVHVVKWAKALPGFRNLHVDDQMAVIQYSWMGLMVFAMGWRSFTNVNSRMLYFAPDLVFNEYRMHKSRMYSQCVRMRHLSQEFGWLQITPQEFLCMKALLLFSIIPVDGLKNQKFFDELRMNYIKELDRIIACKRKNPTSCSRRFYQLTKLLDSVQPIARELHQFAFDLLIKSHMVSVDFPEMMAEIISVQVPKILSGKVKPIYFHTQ
Kind of series: Androgen-induced PSA (6.1 kb)-luciferase reporter assay in LNCaP cells (R1881 1 nM). Type of series: cell-based. Further details: endogenous in cells; host or cells: LNCaP. The note with it: 24 h, read-out: PSA-Luc IC50 Range. An outline of the steps: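 Compound or vehicle was added 1 h before 1 nM R1881 to LNCaP cells carrying a transiently transfected (24 h) PSA (6.1 kb)-luciferase reporter. After 24 h androgen exposure, lysate luminescence was normalized to protein and expressed versus vehicle plus R1881 for IC50.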
(In a reporter assay the amount or activity of a reporter protein is the signal.)

Series [1] is described as follows: Microsomal stability assay, liver microsome half-life (rat). Particulars: pH 7.4; rat liver microsomes 0.5 mg/mL, 1 μM compound, 37° C.; read-out: Liver microsome T1/2 Rat. Type of series: in vitro ADME. From the text:
(§1) Microsomal Stability Assay: Microsomal stability assay is a widely used in vitro model to characterize the metabolic conversion by phase I enzymes, such as cytochrome P450 (CYP) enzymes. Since metabolism is known to be highly variable in different species, microsomal stability assay is commonly run in multiple species. Metabolic stability of testing compound can be evaluated using human, rat, mouse, or other animal liver or intestine microsomes to predict intrinsic clearance.
(§2) The assay was carried out in 96-well microtiter plates at 37° C. Reaction mixtures (25 μL) contained a final concentration of 1 μM test compound, 0.5 mg/mL liver microsomes protein, and 1 mM NADPH and/or 1 mM UDPGA (with alamethicin) in 100 mM potassium phosphate, pH 7.4 buffer with 3 mM MgCl2. The incubation was done with N=1, but duplicate incubation at each time point can be prepared if necessary. At each of the time points (for example, 0, 15, 30, and 60 minutes), 150 μL of quench solution (100% acetonitrile with 0.1% formic acid) with internal standard was transferred to each well. Besides the zero minute controls, mixtures containing the same components except the NADPH can also be prepared as the negative control. Verapamil was included as a positive control to verify assay performance. Plates were sealed, vortexed, and centrifuged at 4° C. for 15 minutes at 4000 rpm. The supernatant is transferred to fresh plates for LC/MS/MS analysis.
(§3) Summarized conditions: [Compound]=1 μM, [LM]=0.5 mg/mL, [NADPH]=1 mM and/or [UDPGA]=1 mM, Buffer=100 mM Potassium Phosphate, pH 7.4 with 3 mM MgCl2, Time=0, 15, 30, and 60 min, and Temperature=37° C.
(§4) All samples were analyzed on LC/MS/MS using an AB Sciex API 4000 instrument, coupled to a Shimadzu LC-20AD LC Pump system. Analytical samples were separated using a Waters Atlantis T3 dC18 reverse phase HPLC column (20 mm×2.1 mm) at a flow rate of 0.5 mL/min. The mobile phase consisted of 0.1% formic acid in water (solvent A) and 0.1% formic acid in 100% acetonitrile (solvent B).
(§5) The extent of metabolism is calculated as the disappearance of the test compound, compared to the 0-min time incubation. Initial rates are calculated for the compound concentration and used to determine half-life (t½). […]
For orientation: Microsomes from liver hold many membrane-bound enzymes, among them those of drug oxidation.

A short description of series [2]: Microsomal stability assay, liver microsome half-life (monkey). Type of series: in vitro ADME. Particulars: pH 7.4; monkey liver microsomes 0.5 mg/mL, 1 μM compound, 37° C.; read-out: Liver microsome T1/2 Monkey.
Excerpt: as §1, §2, §3, §4
(§6) The extent of metabolism is calculated as the disappearance of the test compound, compared to the 0-min time incubation. Initial rates are calculated for the compound concentration and used to determine half-life (t½).

Series [3] in a line: Microsomal stability assay, liver microsome half-life (dog). Type of series: in vitro ADME. The note with it: pH 7.4; dog liver microsomes 0.5 mg/mL, 1 μM compound, 37° C.; read-out: Liver microsome T1/2 Dog.
Excerpt: as §1, §2, §3, §4, §6

Series [4] can be described thus: Microsomal stability assay, liver microsome half-life (mouse). Type of series: in vitro ADME. The note with it: pH 7.4; mouse liver microsomes 0.5 mg/mL, 1 μM compound, 37° C.; read-out: Liver microsome T1/2 Mouse.
Excerpt: as §1, §2, §3, §4, §5

Series [5] can be described thus: Microsomal stability assay, liver microsome half-life (human). Type of series: in vitro ADME. Particulars: pH 7.4; human liver microsomes 0.5 mg/mL, 1 μM compound, 37° C.; read-out: Liver microsome T1/2 Human.
Excerpt: as §1, §2, §3, §4, §5

Where only a bound is given, the exact number is not on record here.

The term IC50 denotes the concentration at which inhibition is half-maximal. On to `CS(=O)(=O)NC1CCN(CCc2ccc3c(ccn3-c3cc(Cl)c(OCCCl)c(C#N)c3)c2)CC1` [Compound A187], for which the half-inhibitory concentration (IC50) on androgen receptor (AR) fell in the range of 500 to 2000 nM. Besides, the half-life at 1 μM was more than 120 min in series [1]; 88 min in series [2]; more than 120 min in series [3]; more than 120 min in series [4]; more than 120 min in series [5].
Take `CC(C)(c1ccc(OCc2ccnc(NS(C)(=O)=O)c2F)cc1)c1cc(Cl)c(OCCCl)c(C#N)c1` [Compound A48]: the IC50 at androgen receptor (AR) was in the range of 500 to 2000 nM. The half-life at 1 μM in series [1], in series [2], in series [3], in series [4] and in series [5] was more than 120 min in each case.
Consider `CC(C)(c1ccc(-c2cnc3nc(NS(C)(=O)=O)ccc3c2)cc1)c1cc(Cl)c(OCCCl)c(C#N)c1` [Compound A194], for which the concentration for half-maximal inhibition (IC50) at androgen receptor (AR) was less than 500 nM. The half-life at 1 μM is more than 120 min in series [1]; more than 120 min in series [2]; 89 min in series [3]; more than 120 min in series [4]; 118 min in series [5].
As for `CC(C)(c1ccc(OCc2ccnc(NS(C)(=O)=O)n2)cc1)c1cc(F)c(N2CCOCC2)c(C#N)c1` [Compound A262], on androgen receptor (AR), the IC50 was in the range of 500 to 2000 nM. The half-life at 1 μM in series [1] was 98 min; in series [2] it was 51 min; in series [3], more than 120 min; in series [4], more than 120 min; in series [5] it was more than 120 min.
For `CS(=O)(=O)Nc1nccc(OCC23CC(C(=O)c4cc(Cl)c(OCCCl)c(C#N)c4)(C2)C3)n1` [Compound A8], the half-maximal inhibitory concentration (IC50) on androgen receptor (AR) is more than 2000 nM. Further, the half-life at 1 μM in series [5] was found to be 9.67 min.
As for `CS(=O)(=O)NC12CC(COc3ccc4c(ccn4-c4cc(Cl)c(OCCCl)c(C#N)c4)c3)(C1)C2` [Compound A57, N-(3-(((1-(3-chloro-4-(2-chloroethoxy)-5-cyanophenyl)-1H-indol-5-yl)oxy)methyl)bicyclo[1.1.1]pentan-1-yl)methanesulfonamide], the 50% inhibitory concentration (IC50) on androgen receptor (AR) is less than 500 nM. Besides, the half-life at 1 μM was more than 120 min in series [1]; 68 min in series [2]; more than 120 min in series [3]; more than 120 min in series [4]; 69 min in series [5].
With `CNC(=O)c1ccc(N2C(=S)N(c3ccc(C#N)c(C(F)(F)F)c3)C(=O)C2(C)C)cc1F` [Enzalutamide, enzalutamide, reference compound], the half-life at 1 μM in series [1], in series [2], in series [3], in series [4] and in series [5] was more than 120 min each time.
`CS(=O)(=O)Nc1nccc(COc2ccc3c(-c4cc(Cl)c(OCCCl)c(C#N)c4)cccc3c2)n1` [Compound A34, N-(4-(((5-(3-chloro-4-(2-chloroethoxy)-5-cyanophenyl)naphthalen-2-yl)oxy)methyl)pyrimidin-2-yl)methanesulfonamide]: the half-maximal inhibitory concentration (IC50) at androgen receptor (AR) lay within 500 to 2000 nM. The half-life at 1 μM in series [4] and in series [5] was more than 120 min in each case.
As to `CC(C)(c1ccc(OC[C@H](O)CNS(C)(=O)=O)cc1)c1cc(Cl)c(OC[C@H](O)CCl)c(Cl)c1` [X, reference compound], the half-life at 1 μM in series [5] is more than 120 min.
Regarding `CC(C)(c1ccc(OCc2ccnc(NS(C)(=O)=O)n2)cc1)c1cc(Cl)c2c(c1)OCCO2` [Compound A38], the IC50 at androgen receptor (AR) is more than 2000 nM. The half-life at 1 μM in series [5] is more than 120 min.
On the same counts, the results for `CS(=O)(=O)Nc1nccc(OCC23CC(C(=O)c4ccc(OCCCl)cc4)(C2)C3)n1` [Compound A7] are more than 2000 nM and 84.3 min.
In the same order, the values of `CS(=O)(=O)Nc1nccc(OC2CCN(C(=O)c3cc(Cl)c(OCCCl)c(C#N)c3)CC2)n1` [Compound A6, N-(4-((1-(3-chloro-4-(2-chloroethoxy)-5-cyanobenzoyl)piperidin-4-yl)oxy)pyrimidin-2-yl)methanesulfonamide] are more than 2000 nM and more than 120 min.
On the same counts, the results for `CS(=O)(=O)Nc1nccc(COCCc2cc(Cl)c(OCCCl)c(C#N)c2)n1` [Compound A5] are more than 2000 nM and 55.8 min.
As for `CS(=O)(=O)Nc1nccc(COc2nnc(-c3cc(Cl)c(OCCCl)c(C#N)c3)o2)n1` [Compound A37, N-(4-(((5-(3-chloro-4-(2-chloroethoxy)-5-cyanophenyl)-1,3,4-oxadiazol-2-yl)oxy)methyl)pyrimidin-2-yl)methanesulfonamide], the IC50 on androgen receptor (AR) lay within 500 to 2000 nM. The half-life at 1 μM in series [5] was more than 120 min.
Turning to `CS(=O)(=O)Nc1nccc(COc2ccc3c(c2)CCCC3c2cc(Cl)c(OCCCl)c(C#N)c2)n1` (centres unmarked) [Compound A33, N-(4-(((5-(3-chloro-4-(2-chloroethoxy)-5-cyanophenyl)-5,6,7,8-tetrahydronaphthalen-2-yl)oxy)methyl)pyrimidin-2-yl)methanesulfonamide], the concentration for half-maximal inhibition (IC50) at androgen receptor (AR) is 500 to 2000 nM. Moreover, the half-life at 1 μM in series [4] and in series [5] was more than 120 min throughout.
As for `CS(=O)(=O)Nc1nccc(COc2nnc(-c3cc(Cl)c(OCCCl)c(C#N)c3)s2)n1` [Compound A41], on androgen receptor (AR), the 50% inhibitory concentration (IC50) is more than 2000 nM. Moreover, the half-life at 1 μM in series [4] and in series [5] was more than 120 min throughout.
Regarding `CS(=O)(=O)Nc1nccc(COc2ccc3c(c2)CCC=C3c2cc(Cl)c(OCCCl)c(C#N)c2)n1` [Compound A32, N-(4-(((5-(3-chloro-4-(2-chloroethoxy)-5-cyanophenyl)-7,8-dihydronaphthalen-2-yl)oxy)methyl)pyrimidin-2-yl)methanesulfonamide], the half-inhibitory concentration (IC50) on androgen receptor (AR) fell in the range of 500 to 2000 nM. Besides, the half-life at 1 μM was more than 120 min in series [4] and 68.3 min in series [5].
With `CC(Oc1ccc2c(ccn2-c2cc(Cl)c(OCCCl)c(C#N)c2)c1)C1CN(S(C)(=O)=O)C1` (centres unmarked) [Compound A159], the concentration for half-maximal inhibition (IC50) at androgen receptor (AR) lay within 500 to 2000 nM.
The same measure, in the same setting: with `CC(c1cc(Cl)c(OCCCl)c(C#N)c1)n1ccc(-c2ccc3nc(NS(C)(=O)=O)ncc3c2)n1` (centres unmarked) [Compound A142] the figure was more than 2000 nM.
